The values below come from patent US10689429B2, “Double-acylated GLP-1 compounds” (Novo Nordisk A/S, priority 2014, dated 2020).

Like-named read-outs stand apart in the source and are kept apart here. *1 amine or outer side, *2 acyl side, *3 side chain or, on linkers, in order; H or OH if unused. Where a SMILES comes first, the peptide text is derived from it. Where no end group is shown, it is not given here. Side-chain parts run from the residue outwards. [ ]: non-standard residue; d: D form. The star is where a group is joined. Undecanoyl(11-OPh(4-COOH)) = O=C(O)c1ccc(OCCCCCCCCCCC(=O)*)cc1; Decanoyl(10-O(3-COOH-Ph)) = O=C(O)c1cccc(OCCCCCCCCCC(=O)*)c1; γGlu = O=C(O)[C@H](CCC(=O)[*:2])N[*:1]; AEEA = NCCOCCOCC(=O)O; Aib = CC(C)(N)C(=O)O

Experiment [1] addresses T1, human GLP-1 receptor (Homo sapiens, UniProt P43220).
T1 construct: expressed in transfected cells; host or cells: membranes from BHK cells, parent line BHKTS13, clone FCW467-12A
The experiment is described as follows: In vitro potency, CRE luciferase reporter gene assay in BHK cells expressing the human GLP-1 receptor.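 Also: firefly luciferase luminescence read after 3 h incubation at 37 °C, compounds tested in an eight-point series from 0.01 pM to 100 nM.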 The format is cell-based. As to conditions: average of duplicates. A general note: Reporter assays use an easily measured gene product as a stand-in for the process of interest.

Experiment [2] deals with T2, human GLP-1 receptor (human, UniProt P43220).
Target sequence in this assay (P43220 24-463): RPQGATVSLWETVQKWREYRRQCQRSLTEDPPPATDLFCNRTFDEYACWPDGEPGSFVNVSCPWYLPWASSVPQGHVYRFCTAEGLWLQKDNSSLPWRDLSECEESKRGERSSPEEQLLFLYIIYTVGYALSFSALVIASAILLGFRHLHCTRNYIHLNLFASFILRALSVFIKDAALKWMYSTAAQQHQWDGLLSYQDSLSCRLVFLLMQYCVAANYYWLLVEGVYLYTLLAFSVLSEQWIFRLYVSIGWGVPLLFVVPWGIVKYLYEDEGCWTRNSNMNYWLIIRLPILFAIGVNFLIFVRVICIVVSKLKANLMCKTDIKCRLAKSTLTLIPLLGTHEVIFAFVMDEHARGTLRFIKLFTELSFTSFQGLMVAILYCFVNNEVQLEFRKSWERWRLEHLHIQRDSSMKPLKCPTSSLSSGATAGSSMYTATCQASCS
Experiment [3] deals with T2, human GLP-1 receptor. The experiment can be described thus: displacement of [125I]-GLP-1-(7-36)NH2 from membranes with human GLP-1 receptor, SPA, high HSA (2.0%). A general note: Displacement assays read how much labelled ligand stays bound in the presence of the test substance.
Method: Each derivative is added in a series of concentrations to isolated membranes containing the human GLP-1 receptor and displacement of the labelled ligand is monitored. The receptor binding is reported as the concentration at which half of the labelled ligand is displaced from the receptor, the $IC50$ value.
For the receptor binding assay in the presence of low HSA (0.001%) 50 μl of the assay buffer was added to each well of an assay plate. […] For the receptor binding assay in the presence of high HSA (2.0%) 50 μl of the 8% albumin stock was added to each well of an assay plate. […] Cell membrane aliquots were thawed and diluted to their working concentration. Fifty μl were added to each well in the assay plate. […] WGA SPA beads were suspended in assay buffer at 20 mg/ml. The suspension was diluted to 10 mg/ml in assay buffer just prior to addition to the assay plate. Fifty μl were added to each well in the assay plate. […] A 25 μl aliquot was reserved for measuring total counts/well. […] The assay plate was incubated for 2 h at 30° C. […] The assay plate was centrifuged for 10 min. […] The assay plate was read in a Packard TopCount NXT instrument.
The mark [4] stands for this setting: EC50/pM (1% HSA), 1% HSA final assay concentration.

T1 sequence (P43220 24-463): as above

For the molecule `CC[C@H](C)[C@H](NC(=O)[C@H](Cc1ccccc1)NC(=O)[C@H](CCC(=O)O)NC(=O)[C@H](CCCNC(=N)N)NC(=O)[C@H](C)NC(=O)[C@H](C)NC(=O)[C@H](CCC(N)=O)NC(=O)[C@H](CCC(=O)O)NC(=O)[C@H](CCC(=O)O)NC(=O)[C@H](CC(C)C)NC(=O)[C@H](Cc1ccc(O)cc1)NC(=O)[C@H](CO)NC(=O)[C@H](CO)NC(=O)[C@@H](NC(=O)[C@H](CC(=O)O)NC(=O)[C@H](CO)NC(=O)[C@@H](NC(=O)[C@H](Cc1ccccc1)NC(=O)[C@@H](NC(=O)CNC(=O)[C@H](CCC(=O)O)NC(=O)CNC(=O)[C@@H](N)Cc1c[nH]cn1)[C@@H](C)O)[C@@H](C)O)C(C)C)C(=O)N[C@@H](C)C(=O)N[C@@H](Cc1c[nH]c2ccccc12)C(=O)N[C@@H](CC(C)C)C(=O)N[C@H](C(=O)N[C@@H](CCCNC(=N)N)C(=O)NCC(=O)N[C@@H](CCCCNC(=O)COCCOCCNC(=O)COCCOCCNC(=O)CC[C@H](NC(=O)CCCCCCCCCCOc1ccc(C(=O)O)cc1)C(=O)O)C(=O)N[C@@H](CCCCNC(=O)COCCOCCNC(=O)COCCOCCNC(=O)CC[C@H](NC(=O)CCCCCCCCCCOc1ccc(C(=O)O)cc1)C(=O)O)C(=O)O)C(C)C` [Example 17, N{Epsilon-36}-[2-[2-[2-[[2-[2-[2-[[(4S)-4-carboxy-4-[11-(4-carboxyphenoxy)undecanoylamino]butanoyl]amino]ethoxy]ethoxy]acetyl]amino]ethoxy]ethoxy]acetyl], N{Epsilon-37}-[2-[2-[2-[[2-[2-[2-[[(4S)-4-carboxy-4-[11-(4-carboxyphenoxy)undecanoylamino]butanoyl]amino]ethoxy]ethoxy]acetyl]amino]ethoxy]ethoxy]acetyl]-[Gly8,Glu22,Arg26,Arg34,Lys36,Lys37]-GLP-1-(7-37)-peptide] (H-HGEGTFTSDVSSYLEEQAAREFIAWLVRGK([AEEA-AEEA-γGlu-Undecanoyl(11-OPh(4-COOH))])K([AEEA-AEEA-γGlu-Undecanoyl(11-OPh(4-COOH))])-OH; N-terminus and C-terminus assumed), the EC50 in experiment [1] (EC50/pM (0% HSA), 0% HSA) was determined as 14 pM; in experiment [1] (setting [4]), 199 pM.

For the molecule `CC[C@H](C)[C@H](NC(=O)[C@H](Cc1ccccc1)NC(=O)[C@H](CCC(=O)O)NC(=O)[C@H](CCCNC(=N)N)NC(=O)[C@H](C)NC(=O)[C@H](C)NC(=O)[C@H](CCC(N)=O)NC(=O)[C@H](CCC(=O)O)NC(=O)[C@H](CCC(=O)O)NC(=O)[C@H](CC(C)C)NC(=O)[C@H](Cc1ccc(O)cc1)NC(=O)[C@H](CO)NC(=O)[C@H](CO)NC(=O)[C@@H](NC(=O)[C@H](CC(=O)O)NC(=O)[C@H](CO)NC(=O)[C@@H](NC(=O)[C@H](Cc1ccccc1)NC(=O)[C@@H](NC(=O)CNC(=O)[C@H](CCC(=O)O)NC(=O)C(C)(C)NC(=O)[C@@H](N)Cc1c[nH]cn1)[C@@H](C)O)[C@@H](C)O)C(C)C)C(=O)N[C@@H](C)C(=O)N[C@@H](Cc1c[nH]c2ccccc12)C(=O)N[C@@H](CC(C)C)C(=O)N[C@H](C(=O)N[C@@H](CCCNC(=N)N)C(=O)NCC(=O)N[C@@H](CCCCNC(=O)COCCOCCNC(=O)COCCOCCNC(=O)COCCOCCNC(=O)COCCOCCNC(=O)CC[C@H](NC(=O)CCCCCCCCCOc1cccc(C(=O)O)c1)C(=O)O)C(=O)N[C@@H](CCCCNC(=O)COCCOCCNC(=O)COCCOCCNC(=O)COCCOCCNC(=O)COCCOCCNC(=O)CC[C@H](NC(=O)CCCCCCCCCOc1cccc(C(=O)O)c1)C(=O)O)C(=O)O)C(C)C` [Example 22], the EC50 came to 1.8 pM in experiment [1] (EC50/pM (0% HSA), 0% HSA) and 7.7 pM in experiment [1] (setting [4]).

As for `CC[C@H](C)[C@H](NC(=O)[C@H](Cc1ccccc1)NC(=O)[C@H](CCC(=O)O)NC(=O)[C@H](CCCNC(=N)N)NC(=O)[C@H](C)NC(=O)[C@H](C)NC(=O)[C@H](CCC(N)=O)NC(=O)[C@H](CCC(=O)O)NC(=O)[C@H](CCC(=O)O)NC(=O)[C@H](CC(C)C)NC(=O)[C@H](Cc1ccc(O)cc1)NC(=O)[C@H](CO)NC(=O)[C@H](CO)NC(=O)[C@@H](NC(=O)[C@H](CC(=O)O)NC(=O)[C@H](CO)NC(=O)[C@@H](NC(=O)[C@H](Cc1ccccc1)NC(=O)[C@@H](NC(=O)CNC(=O)[C@H](CCC(=O)O)NC(=O)C(C)(C)NC(=O)[C@@H](N)Cc1c[nH]cn1)[C@@H](C)O)[C@@H](C)O)C(C)C)C(=O)N[C@@H](C)C(=O)N[C@@H](Cc1c[nH]c2ccccc12)C(=O)N[C@@H](CC(C)C)C(=O)N[C@H](C(=O)N[C@@H](CCCNC(=N)N)C(=O)NCC(=O)N[C@@H](CCCCNC(=O)COCCOCCNC(=O)COCCOCCNC(=O)CC[C@H](NC(=O)CC[C@H](NC(=O)CCCCCCCCCCCCC(=O)O)C(=O)O)C(=O)O)C(=O)N[C@@H](CCCCNC(=O)COCCOCCNC(=O)COCCOCCNC(=O)CC[C@H](NC(=O)CC[C@H](NC(=O)CCCCCCCCCCCCC(=O)O)C(=O)O)C(=O)O)C(=O)O)C(C)C` [Example 21], the EC50 in experiment [1] (0% HSA, read-out: EC50/pM (0% HSA)) stood at 5.6 pM; in experiment [1] (setting [4]), 13 pM.

On to `CC[C@H](C)[C@H](NC(=O)[C@H](Cc1ccccc1)NC(=O)[C@H](CCC(=O)O)NC(=O)[C@H](CCCNC(=N)N)NC(=O)[C@H](C)NC(=O)[C@H](C)NC(=O)[C@H](CCC(N)=O)NC(=O)[C@H](CCC(=O)O)NC(=O)[C@H](CCC(=O)O)NC(=O)[C@H](CC(C)C)NC(=O)[C@H](Cc1ccc(O)cc1)NC(=O)[C@H](CO)NC(=O)[C@H](CO)NC(=O)[C@@H](NC(=O)[C@H](CC(=O)O)NC(=O)[C@H](CO)NC(=O)[C@@H](NC(=O)[C@H](Cc1ccccc1)NC(=O)[C@@H](NC(=O)CNC(=O)[C@H](CCC(=O)O)NC(=O)C(C)(C)NC(=O)[C@@H](N)Cc1c[nH]cn1)[C@@H](C)O)[C@@H](C)O)C(C)C)C(=O)N[C@@H](CCC(=O)O)C(=O)N[C@@H](Cc1c[nH]c2ccccc12)C(=O)N[C@@H](CC(C)C)C(=O)N[C@H](C(=O)N[C@@H](CCCNC(=N)N)C(=O)NCC(=O)N[C@@H](CCCCNC(=O)COCCOCCNC(=O)COCCOCCNC(=O)CC[C@H](NC(=O)CCCCCCCCCOc1cccc(C(=O)O)c1)C(=O)O)C(=O)N[C@@H](CCCCNC(=O)COCCOCCNC(=O)COCCOCCNC(=O)CC[C@H](NC(=O)CCCCCCCCCOc1cccc(C(=O)O)c1)C(=O)O)C(=O)O)C(C)C` [Example 27, N{Epsilon-36}-[2-[2-[2-[[2-[2-[2-[[(4S)-4-carboxy-4-[10-(3-carboxyphenoxy)decanoylamino]butanoyl]amino]ethoxy]ethoxy]acetyl]amino]ethoxy]ethoxy]acetyl], N{Epsilon-37}-[2-[2-[2-[[2-[2-[2-[[(4S)-4-carboxy-4-[10-(3-carboxyphenoxy)decanoylamino]butanoyl]amino]ethoxy]ethoxy]acetyl]amino]ethoxy]ethoxy]acetyl]-[Aib8,Glu22,Arg26,Glu30,Arg34,Lys36,Lys37]-GLP-1-(7-37)-peptide], for which the EC50 is 13 pM in experiment [1] (EC50/pM (0% HSA), 0% HSA) and 105 pM in experiment [1] (setting [4]).

On to `CC[C@H](C)[C@H](NC(=O)[C@H](Cc1ccccc1)NC(=O)[C@H](CCC(=O)O)NC(=O)[C@H](CCCNC(=N)N)NC(=O)[C@H](C)NC(=O)[C@H](C)NC(=O)[C@H](CCC(N)=O)NC(=O)[C@H](CCC(=O)O)NC(=O)[C@H](CCC(=O)O)NC(=O)[C@H](CC(C)C)NC(=O)[C@H](Cc1ccc(O)cc1)NC(=O)[C@H](CO)NC(=O)[C@H](CO)NC(=O)[C@@H](NC(=O)[C@H](CC(=O)O)NC(=O)[C@H](CO)NC(=O)[C@@H](NC(=O)[C@H](Cc1ccccc1)NC(=O)[C@@H](NC(=O)CNC(=O)[C@H](CCC(=O)O)NC(=O)C(C)(C)NC(=O)[C@@H](N)Cc1c[nH]cn1)[C@@H](C)O)[C@@H](C)O)C(C)C)C(=O)N[C@@H](C)C(=O)N[C@@H](Cc1c[nH]c2ccccc12)C(=O)N[C@@H](CC(C)C)C(=O)N[C@H](C(=O)N[C@@H](CCCNC(=N)N)C(=O)NCC(=O)N[C@@H](CCCCNC(=O)COCCOCCNC(=O)COCCOCCNC(=O)CC[C@H](NC(=O)CC[C@H](NC(=O)CCCCCCCCCCOc1ccc(C(=O)O)cc1)C(=O)O)C(=O)O)C(=O)N[C@@H](CCCCNC(=O)COCCOCCNC(=O)COCCOCCNC(=O)CC[C@H](NC(=O)CC[C@H](NC(=O)CCCCCCCCCCOc1ccc(C(=O)O)cc1)C(=O)O)C(=O)O)C(=O)O)C(C)C` [Example 18], for which the EC50 in experiment [1] (setting [4]) is 29 pM.

With `CC[C@H](C)[C@H](NC(=O)[C@H](Cc1ccccc1)NC(=O)[C@H](CCC(=O)O)NC(=O)[C@H](CCCNC(=N)N)NC(=O)[C@H](C)NC(=O)[C@H](C)NC(=O)[C@H](CCC(N)=O)NC(=O)[C@H](CCC(=O)O)NC(=O)[C@H](CCC(=O)O)NC(=O)[C@H](CC(C)C)NC(=O)[C@H](Cc1ccc(O)cc1)NC(=O)[C@H](CO)NC(=O)[C@H](CO)NC(=O)[C@@H](NC(=O)[C@H](CC(=O)O)NC(=O)[C@H](CO)NC(=O)[C@@H](NC(=O)[C@H](Cc1ccccc1)NC(=O)[C@@H](NC(=O)CNC(=O)[C@H](CCC(=O)O)NC(=O)C(C)(C)NC(=O)[C@@H](N)Cc1c[nH]cn1)[C@@H](C)O)[C@@H](C)O)C(C)C)C(=O)N[C@@H](CCC(=O)O)C(=O)N[C@@H](Cc1c[nH]c2ccccc12)C(=O)N[C@@H](CC(C)C)C(=O)N[C@H](C(=O)N[C@@H](CCCNC(=N)N)C(=O)NCC(=O)N[C@@H](CCCCNC(=O)COCCOCCNC(=O)COCCOCCNC(=O)COCCOCCNC(=O)COCCOCCNC(=O)CC[C@H](NC(=O)CCCCCCCCCOc1cccc(C(=O)O)c1)C(=O)O)C(=O)N[C@@H](CCCCNC(=O)COCCOCCNC(=O)COCCOCCNC(=O)COCCOCCNC(=O)COCCOCCNC(=O)CC[C@H](NC(=O)CCCCCCCCCOc1cccc(C(=O)O)c1)C(=O)O)C(=O)O)C(C)C` [Example 28], the EC50 in experiment [1] (EC50/pM (0% HSA), 0% HSA) is 12 pM; in experiment [1] (setting [4]), 25 pM.

In experiment [2], H[Aib]EGTFTSDVSSYLEEQAAREFIAWLVRGK([AEEA-AEEA-AEEA-AEEA-γGlu-Decanoyl(10-O(3-COOH-Ph))])K([AEEA-AEEA-AEEA-AEEA-γGlu-Decanoyl(10-O(3-COOH-Ph))]) [GLP-1 derivative of Example 22] returned an EC50/pM (0% HSA) of 1.8 pM and an EC50/pM (1% HSA) of 7.7 pM. For the same molecule, the IC50 (usually the point on the concentration scale where inhibition reaches its midpoint) in experiment [3] came out at 45 nM.

Turning to H[Aib]EGTFTSDVSSYLEEQAAREFIAWLVRGK([AEEA-AEEA-γGlu-γGlu-Undecanoyl(11-OPh(4-COOH))])K([AEEA-AEEA-γGlu-γGlu-Undecanoyl(11-OPh(4-COOH))]) [GLP-1 derivative of Example 18], in experiment [2], the EC50/pM (0% HSA) came to 0.8 pM and the EC50/pM (1% HSA) is 29 pM.
